Here are results for 50 compounds from the RepoRT retention time repository (doi:10.1016/j.foodchem.2021.129757).

Each structure is given as a SMILES string. Structures can show the parent of a compound that is named as a salt.

Conditions in all cases: stereoisomer not certain
A short description of data set [1]: RP, Agilent ZORBAX RRHD Eclipse Plus C18, 50 × 2.1 mm, 1.8 µm, 30 °C, 0.4 mL/min, estimated dead time 0.28 min; A: water + 0.1% formic acid, pH 3; B: acetonitrile + 0.1% formic acid, pH 3; gradient (min/%B) 0/1 5/10 8/25 9.1/99 10/99 12/1.
A short description of data set [2]: RP, Agilent ZORBAX RRHD Eclipse Plus C18, 50 × 2.1 mm, 1.8 µm, 30 °C, 0.4 mL/min, estimated dead time 0.28 min; A: water + 0.1% formic acid, pH 3; B: acetonitrile + 0.1% formic acid, pH 3; gradient (min/%B) 0/1 5/10 8/25 9.1/99 10/99 12/99.
The nature of data set [3]: RP, Agilent InfinityLab Poroshell 120 EC-C18, 100 × 3 mm, 2.7 µm, 25 °C, 0.4 mL/min, estimated dead time 1.1 min; A: water + 0.1% formic acid, pH 3; B: acetonitrile + 0.1% formic acid, pH 3; gradient (min/%B) 0/5 10/25 20/40 24/90 25/90 26/5 30/5.
The nature of data set [4]: RP, Waters ACQUITY UPLC BEH C18, 100 × 2.1 mm, 1.7 µm, 65 °C, 0.4 mL/min, estimated dead time 0.55 min; A: water + 0.1% formic acid, pH 3; B: 80% acetonitrile + 20% acetone + 0.1% formic acid, pH 3; gradient (min/%B) 0/0 5/100 5.5/0 6/0.
Data set [5] can be described thus: RP, Agilent ZORBAX Eclipse XDB-C18, 100 × 2.1 mm, 1.8 µm, 50 °C, 0.4 mL/min, estimated dead time 0.55 min; A: water + 0.1% formic acid, pH 3; B: methanol + 0.1% formic acid, pH 3; gradient (min/%B) 0/2 10/100 14.5/100 14.51/2 16.5/2.
Data set [6] is described as follows: RP, Waters ACQUITY UPLC BEH Shield RP18, 150 × 2.1 mm, 1.7 µm, 40 °C, 0.4 mL/min, estimated dead time 0.83 min; A: water + 0.1% formic acid, pH 3; B: acetonitrile + 0.1% formic acid, pH 3; gradient (min/%B) 0/0 30/50 31/100 37/100 37.1/0.

On to `O=C1CCC(Cc2ccc(OS(=O)(=O)O)c(O)c2)O1` (centres undefined), for which the values for the LC retention time in data set [1] and in data set [2] were 6.09 min and 5.42 min, respectively.
In the case of `CC(Oc1ccc(O)cc1)C(=O)O` (single isomer, unassigned; (+)) [(+)-2-(4-Hydroxyphenoxy)propionic acid], the LC retention time is 6.31 min in data set [1] and 3.73 min in data set [2].
With `Oc1cc(O)c2c(c1)OC(c1ccc(O)c(O)c1)C(O)C2` (single isomer, unassigned; (+)) [(+)-Catechin], the LC retention time in data set [2] is 4.65 min.
Consider `COc1cc(CC(CO)C(CO)Cc2ccc(O)c(OC)c2)ccc1O` (single isomer, unassigned; (-)) [(-)-Secoisolariciresinol], for which the LC retention time is 11.5 min in data set [3] and 2.4 min in data set [4].
For the compound `COc1cccc(OS(=O)(=O)O)c1O` [1-Methyl-pyrogallol-O-sulfate], the LC retention time in data set [1] was 4 min; in data set [2] it was 1.96 min.
Regarding `COc1c(O)cccc1OS(=O)(=O)O` [2-Methyl-pyrogallol-O-sulfate], the LC retention time was 2.89 min in data set [1] and 1.12 min in data set [2].
With `COc1ccc(C(=O)O)c(O)c1` [2-hydroxy-4-methoxybenzoic acid], in data set [1], the LC retention time is 8.98 min.
On to `O=Cc1cccc(O)c1` [3-Hydroxybenzaldehyde], for which the LC retention time in data set [1] is 5.91 min; in data set [5], 3.72 min.
Consider `O=C(O)CNC(=O)c1cccc(O)c1` [3-Hydroxyhippuric acid], for which the figures for the LC retention time in data set [1], in data set [2] and in data set [4] were 3.58 min, 1.88 min and 1.58 min, respectively.
Consider `O=C(O)Cc1cccc(O)c1` [3-hydroxyphenylacetic acid], for which the LC retention time in data set [1] was 5.69 min; in data set [2] it was 4.67 min; in data set [5], 3.55 min.
Regarding `COc1ccc(C2Oc3cc(O)cc(O)c3CC2O)cc1O` (centres undefined) [4'-O-methylepicatechin], the LC retention time in data set [1] is 7.85 min.
Consider `Nc1ccc(C(=O)O)cc1` [4-Aminobenzoic acid], for which the values for the LC retention time in data set [5] and in data set [4] were 2.08 min and 1.53 min, respectively.
Turning to `Cc1ccc(OS(=O)(=O)O)c(O)c1` [4-Methylcatechol-1-O-sulfate], the LC retention time was 5.96 min in data set [1] and 3.83 min in data set [2].
On the same counts, the results for `Cc1ccc(O)c(OS(=O)(=O)O)c1` [4-Methylcatechol-2-O-sulfate] are 5.96 min and 3.83 min.
Consider `C=C1C(=O)OC2C1CCC(C)=C1C(=O)C=C(COC(=O)C(=O)O)C12` (centres undefined) [8-deoxylactucin-15-oxalate], for which the LC retention time in data set [6] is 14.5 min.
The same measure, in the same setting: the same measure for `C=C1C(=O)OC2C1CCC(C)=C1C(=O)C=C(CO)C12` (centres undefined) [8-deoxylactucin]: 15.5 min.
`O=C(O)C=Cc1ccc(O)c(OS(=O)(=O)O)c1` [Caffeic acid-3-O-sulfate]: the results for the LC retention time in data set [1] and in data set [2] were 4.86 min and 3.99 min, respectively.
`O=C(O)C=Cc1ccc(O)c(OC2OC(C(=O)O)C(O)C(O)C2O)c1` (centres undefined) [Caffeic acid-3-glucuronide]: the LC retention time in data set [1] was 5.23 min; in data set [2] it was 4.14 min.
As for `Oc1ccccc1O` [Catechol], the LC retention time in data set [1] is 3.15 min; in data set [2] it was 3.97 min; in data set [6], 4.35 min; in data set [4] it was 1.75 min.
Consider `COc1ccc(CCC(=O)O)cc1OS(=O)(=O)O` [Dihydro isoferulic acid-3-O-sulfate], for which the LC retention time in data set [1] is 6.39 min; in data set [2], 5.06 min.
With `CC1=C2C(=O)C=C(COC(=O)C(=O)O)C2C2OC(=O)C(C)C2CC1` (centres undefined) [Dihydro-8-deoxylactucin-15-oxalate], the LC retention time in data set [6] is 14.9 min.
On the same count and under the same terms, for `CC1=C2C(=O)C=C(CO)C2C2OC(=O)C(C)C2CC1` (centres undefined) [Dihydro-8-deoxylactucin] the value was 14.5 min.
On to `COc1cc(CCC(=O)O)ccc1OC1OC(C(=O)O)C(O)C(O)C1O` (centres undefined) [Dihydroferulic acid-4-O-glucuronide], for which the LC retention time in data set [1] was 5.64 min; in data set [2] it was 5.15 min.
Take `COc1cc(CCC(=O)O)ccc1O` [Dihydroferulic acid]: the figures for the LC retention time in data set [1], in data set [2] and in data set [6] were 7.16 min, 4.07 min and 8.81 min, respectively.
`COc1ccc(CCC(=O)O)cc1O` [Dihydroisoferulic acid]: the figures for the LC retention time in data set [1] and in data set [2] were 7.68 min and 5.06 min, respectively.
Turning to `O=C1c2c(O)cc(O)cc2OC(c2ccc(O)cc2)C1O` (centres undefined) [Dihydrokaempferol], the LC retention time in data set [6] is 15.3 min.
As for `CC1=C2C(=O)C=C(COC(=O)C(=O)O)C2C2OC(=O)C(C)C2C(O)C1` (centres undefined) [Dihydrolactucin-15-oxalate], the LC retention time in data set [6] is 9.7 min.
For `CC1=C2C(=O)C=C(CO)C2C2OC(=O)C(C)C2C(O)C1` (centres undefined) [Dihydrolactucin], in data set [6], the LC retention time was 10.5 min.
Still for that read-out and setting: for `CC1=C2C(=O)C=C(COC(=O)C(=O)O)C2C2OC(=O)C(C)C2C(OC(=O)Cc2ccc(O)cc2)C1` (centres undefined) [Dihydrolactucopicrin-15-oxalate] the value was 17.3 min.
In the case of `O=C1OCC(Cc2cccc(O)c2)C1Cc1cccc(O)c1` (centres undefined) [Enterolactone], the LC retention time was 17.4 min in data set [3] and 2.88 min in data set [4].
On the same counts, the results for `O=C(O)C1OC(Oc2cc(O)c3c(=O)c(-c4ccc(O)cc4)coc3c2)C(O)C(O)C1O` (centres undefined) [Genistein 7-O-glucuronide] are 9.6 min and 2.1 min.
In the case of `COc1cc(CC(=O)O)ccc1OS(=O)(=O)O` [Homovanillic acid sulfate], the LC retention time in data set [1] was 4.48 min; in data set [2] it was 2.12 min; in data set [4], 1.45 min.
`COc1ccc(C(=O)O)cc1O` [Isovanillic acid]: the figures for the LC retention time in data set [1] and in data set [2] were 5.2 min and 1.99 min, respectively.
Turning to `C=C1C(=O)OC2C3C(CO)=CC(=O)C3=C(C)CC(O)C12` (centres undefined) [Lactucin], in data set [6], the LC retention time is 11.2 min.
Take `C=C1C(=O)OC2C3C(CO)=CC(=O)C3=C(C)CC(OC(=O)Cc3ccc(O)cc3)C12` (centres undefined) [Lactucopicrin]: in data set [6], the LC retention time is 18.4 min.
`O=C(O)Cc1ccccc1` [Phenylacetic acid]: the values for the LC retention time in data set [1] and in data set [2] were 7.64 min and 4.65 min, respectively.
With `O=S(=O)(O)Oc1cccc(O)c1O` [Pyrogallol-1-O-sulfate], the results for the LC retention time in data set [1] and in data set [2] were 1.56 min and 0.774 min, respectively.
On the same counts, the results for `O=C(O)C1OC(Oc2cc(O)c3c(=O)c(O)c(-c4ccc(O)c(O)c4)oc3c2)C(O)C(O)C1O` (centres undefined) [Quercetin-7-O-glucuronide] are 7.84 min and 8.38 min.
With `Oc1cccc(O)c1` [Resorcinol], the LC retention time was 2.66 min in data set [1] and 1.44 min in data set [2].
For `Cc1cc2nc3c(=O)[nH]c(=O)nc-3n(CC(O)C(O)C(O)CO)c2cc1C` (centres undefined) [Riboflavin], the results for the LC retention time in data set [5] and in data set [4] were 4.17 min and 1.73 min, respectively.
For the compound `Cn1c(=O)c2[nH]cnc2n(C)c1=O` [Theophylline], the LC retention time was 3.05 min in data set [5] and 1.5 min in data set [4].
In the same order, the values of `NCCc1c[nH]c2ccccc12` [Tryptamine] are 2.51 min and 1.51 min.
In the same order, the values of `COc1cc(C(O)C(=O)O)ccc1O` (centres undefined) [Vanillylmandelic acid] are 1.65 min and 1.42 min.
Regarding `O=C(O)C=Cc1ccc(OS(=O)(=O)O)c(O)c1` [caffeic acid-4-O-sulfate], the LC retention time was 5.28 min in data set [1] and 5.5 min in data set [2].
Turning to `O=c1c(O)c(-c2ccccc2)oc2cc(O)cc(O)c12` [galangin], the LC retention time in data set [6] is 29.4 min.
With `C=C1C(=O)OC2C3C(COC(=O)C(=O)O)=CC(=O)C3=C(C)CC(O)C12` (centres undefined) [lactucin-15-oxalate], the LC retention time in data set [6] was 10.4 min.
On the same count and under the same terms, for `C=C1C(=O)OC2C3C(COC(=O)C(=O)O)=CC(=O)C3=C(C)CC(OC(=O)Cc3ccc(O)cc3)C12` (centres undefined) [lactucopicrin-15-oxalate] the value was 17.2 min.
With `O=C(O)C=Cc1ccc(OS(=O)(=O)O)cc1` [p-Coumaric acid 4-O-sulfate], the LC retention time in data set [1] is 5.25 min; in data set [2], 3.78 min.
As for `O=C(O)C=Cc1ccc(OC2OC(C(=O)O)C(O)C(O)C2O)cc1` (centres undefined) [p-Coumaric acid-4-O-glucuronide], the LC retention time in data set [1] was 3.8 min; in data set [2], 1.85 min.
Regarding `CCCOC(=O)c1cc(O)c(O)c(O)c1` [propyl gallate], the LC retention time in data set [6] was 12.8 min.
